Marks after values point to notes of the source that are not given here.
Experiments:
[1] = system: myeloid leukemia HL-60 cells; assay: Growth inhibition on tumor cells (MTT); format: cell-based; settings: Homo sapiens
Procedure: (§1) The cells of human cervical carcinoma Hela, lung cancer A549, gastric cancer SGC7901, liver cancer HepG2, myeloid leukemia HL-60 and colon cancer SW1116 are cultured in DMEM or RPMI 1640 medium (containing 10% inactived fetal bovine serum, 100 U·ml^−1 penicillin and 100 mg·l^−1 streptomycin) in a humidified 5% CO2 atmosphere at […]. The cells in logarithmic phase are collected, inoculated into 96-well plate at a density of 3×10^3/well (each well of 100 μl), and cultured for 24 h under 37° C., 5% CO2 and saturated humidity condition. A negative control group (culture solution) and administration groups with different concentrations are set up for the test. 1-300 nmol/1 bufalin or bufalin liposome (prepared according to the method of Example 1) is added into each culture well, followed by culturing in an incubator under 37° C., 5% CO2 and saturated humidity for 48 h, adding 20 μl of MTT solution (5 g/l) into each well, culturing for 4 h, and centrifuging. The supernatant was aspirated, and 150 μl dimethyl sulfoxide (DMSO) is added to each well and slightly shaking to dissolve crystal. The OD values are measured at 570 nm by an automatic microplate reader, and the cell growth inhibition rates are calculated according to following formula: cell growth inhibition rate/%=100−(OD value of administration group-OD value of blank control group)/(OD value of control group-OD value of bland control group)×100. IC50 (drug concentration at 50% inhibition on cell proliferation) value is calculated using mathematical method. Data are expressed as X±SEM. Statistical significance (P<0.05) for each variable is estimated by Student's t-test or ANOVA analysis.

[2] = system: gastric cancer SGC7901 cells; assay: Growth inhibition on tumor cells (MTT); format: cell-based; settings: Homo sapiens
Procedure: as §1

liver cancer HepG2 cells = assay: Growth inhibition on tumor cells (MTT); format: cell-based; settings: Homo sapiens
Procedure: as §1

lung cancer A549 cells = assay: Growth inhibition on tumor cells (MTT); format: cell-based; settings: Homo sapiens
Procedure: as §1

[3] = system: human cervical carcinoma Hela cells; assay: Growth inhibition on tumor cells (MTT); format: cell-based; settings: 48 h
Procedure: as §1

[4] = system: colon cancer SW1116 cells; assay: Growth inhibition on tumor cells (MTT); format: cell-based; settings: Homo sapiens
Procedure: as §1

[5] = system: patient with liver cancer or pancreas cancer; assay: Clinical tolerance of Huachasu injection (literature, Meng Z. et al.); format: in vivo, human; settings: worked out from the Huachasu injection dose and its bufalin content
Text: At present, a Huachasu injection, prepared by dissolving Venenum Bufonis in normal saline, has been used for the clinical treatment of cancer in China. It has been reported that the combination of gemcitabine-oxaliplatin with Huachasu can enhance the chemotherapeutic effect in the treatment of patients with advanced gallbladder cancer (Qin T J, et al. World J Gastroenterol. 2008, 14(33):5210-6). […] However, the Huachasu injection is a mixture solution of alkaloids in Venenum Bufonis, and the content of bufalin contained therein is very low due to the poor water solubility of bufalin.

[6] = system: mice bearing L1210 leukemia; assay: Therapeutic effect on mice bearing L1210 leukemia; format: in vivo, mouse; settings: ICR mice, i.p. daily, 1 mg/kg bufalin or 1 ml/kg Huachasu
Procedure: Mouse L1210 leukemia cells are subcultured intraperitoneally in ICR mouse. The bufalin liposome is prepared according to the method of Example 1. Male ICR mice (weight of 20±2 g, 5 mice in each cage) are fed in an animal room under alternative 12-hour illumination and 12-hour darkness at a constant temperature of 25° C. and allowed free access to standard laboratory diet. The mice are inoculated intraperitoneally with 1×10^5 L1210 leukemia cell suspension under sterile condition, and randomly divided into 4 groups (10 mice for each group). After 24 h, each group is intraperitoneally injected with 0.9% normal saline (control group), bufalin or bufalin liposome at the same dosage (obtained by Example 1, 1 mg/kg, the dosage is the amount of bufalin in liposome, and the actual dosage of liposome is calculated from encapsulation efficiency) and Huachasu injection (1 ml/kg, the dosage is obtained by converting clinically commonly used dosage into mouse administration dosage) respectively every day. The survival situations of mice within 35 days are observed and recorded, and the life extension rate is calculated. Life extension rate (%)=(average survival time of administration group/average survival time of control group-1)×100. Data are expressed as X±SEM. Statistical significance (P<0.05) for each variable was estimated by Student's t-test or ANOVA analysis.

[7] = Evaluation of acute toxicities in mice (LD50, Bliss method); settings: mouse, in vivo, ip; male Balb/c mice, intraperitoneal, observed 7 days; dose as amount of bufalin; read-out: half-lethal dose (LD50)
Procedure: Male Balb/c mice (20-25 g) are purchased from the Laboratory Animal Center of Fourth Military Medical University. Bufalin is dissolved with anhydrous ethanol first, and then diluted with normal saline to 0.2 mg/ml (the final concentration of ethanol is below 1%). Bufalin liposome (prepared according to the method of Example 1) is directly dissolved in normal saline to obtain 0.2 mg/ml solution. 10 animals of each group are intraperitoneally injected with bufalin or bufalin liposome at dosages of 0.5, 1, 2, 4 and 6 mg/kg respectively (the dosage is the amount of bufalin in liposome, and the actual dosage of liposome is calculated from encapsulation efficiency). The mortality of mice, the toxic effect and any adverse reactions such as diarrhea, weight loss and behavior change are observed continuously for 7 days. The half-lethal dose (LD50) is calculated using graphical Bliss method.

[8] = system: HepG2 tumour bearing mice; assay: In vivo therapeutic effect on liver cancer, HepG2 tumour bearing nude mice; parameters: species or system mouse; settings: i.p. daily, 1 mg/kg bufalin or 1 ml/kg Huachasu
Procedure: Human hepatocellular carcinoma cells, HepG2, are cultured in DMEM medium supplemented with 10% FBS, 100 U/ml penicillin G, and 100 μg/ml streptomycin in a humidified 5% CO2 atmosphere at 37° C. Male BALB/c nude mice (6-week-aged) are fed in pathogen-free conditions. The bufalin liposome is prepared according to the method of Example 1. Exponentially growing HepG2 cells are collected, and prepared into cell suspension with PBS. 0.2 ml of the cell suspension (2×10^7 cells) is injected subcutaneously into the right back of each mouse. When the tumor grows to 100 mm^3 (about one week), the mice are randomly divided into 4 groups (8 mice for each group), and intraperitoneally injected with 0.9% normal saline (control group), bufalin or bufalin liposome at the same dosage (Example 1, 1 mg/kg, the dosage is the amount of bufalin in liposome, and the actual dosage of liposome is calculated from encapsulation efficiency) and Huachasu injection (1 ml/kg, the dosage is obtained by converting clinically commonly used dosage into mouse administration dosage) respectively every day. […] The tumor volume is calculated according to the formula: V(mm^3)=(maximal diameter×minimal diameter^2)/2. After 14 days, the mice are sacrificed in anesthesia with overdose of pentobarbital sodium, followed by completely stripping the tumor body and weighing, and calculating the tumor inhibition rate by: tumor inhibition rate (%)=(average tumor weight of control group-average tumor weight of administration group)/average tumor weight of control group×100. Data are expressed as X±SEM, and statistically processed via t-test or variance analysis.

SMILES: C[C@]12CC[C@H](O)C[C@H]1CC[C@@H]1[C@@H]2CC[C@]2(C)[C@@H](c3ccc(=O)oc3)CC[C@]12O [bufalin, 3β,14-dihydroxy-5β, 20(22)-bufadienolide]
- inhibition at 0.001 µM ([1]; HL60, 1 nmol/l, 48 h, read-out: Inhibition rate (%)): 1.6 ± 0.1%
- inhibition at 0.003 µM ([1]; HL60, 3 nmol/l, 48 h, read-out: Inhibition rate (%)): 4.4 ± 0.7%
- inhibition at 0.01 µM ([1]; HL60, 10 nmol/l, 48 h, read-out: Inhibition rate (%)): 33.8 ± 6.1%
- inhibition at 0.03 µM ([1]; HL60, 30 nmol/l, 48 h, read-out: Inhibition rate (%)): 52.4 ± 8%
- inhibition at 0.1 µM ([1]; HL60, 100 nmol/l, 48 h, read-out: Inhibition rate (%)): 88.7 ± 9.8%
- inhibition at 0.3 µM ([1]; HL60, 300 nmol/l, 48 h, read-out: Inhibition rate (%)): 98 ± 10.2%
- IC50 ([1]; HL60, 48 h): 21.1 nM
- inhibition at 0.001 µM ([2]; SGC-7901, 1 nmol/l, 48 h, read-out: Inhibition rate (%)): 3.1 ± 0.5%
- inhibition at 0.003 µM ([2]; SGC-7901, 3 nmol/l, 48 h, read-out: Inhibition rate (%)): 3.9 ± 0.8%
- inhibition at 0.01 µM ([2]; SGC-7901, 10 nmol/l, 48 h, read-out: Inhibition rate (%)): 23.7 ± 3.6%
- inhibition at 0.03 µM ([2]; SGC-7901, 30 nmol/l, 48 h, read-out: Inhibition rate (%)): 45.9 ± 6.5%
- inhibition at 0.1 µM ([2]; SGC-7901, 100 nmol/l, 48 h, read-out: Inhibition rate (%)): 85.6 ± 10.2%
- inhibition at 0.3 µM ([2]; SGC-7901, 300 nmol/l, 48 h, read-out: Inhibition rate (%)): 97.9 ± 11.3%
- IC50 ([2]; SGC-7901, 48 h): 23.5 nM
- inhibition at 0.001 µM (liver cancer HepG2 cells; HepG2, 1 nmol/l, 48 h, read-out: Inhibition rate (%)): 5.3 ± 2.2%
- inhibition at 0.003 µM (liver cancer HepG2 cells; HepG2, 3 nmol/l, 48 h, read-out: Inhibition rate (%)): 6.1 ± 2.3%
- inhibition at 0.01 µM (liver cancer HepG2 cells; HepG2, 10 nmol/l, 48 h, read-out: Inhibition rate (%)): 30.2 ± 2.9%
- inhibition at 0.03 µM (liver cancer HepG2 cells; HepG2, 30 nmol/l, 48 h, read-out: Inhibition rate (%)): 49.8 ± 8.3%
- inhibition at 0.1 µM (liver cancer HepG2 cells; HepG2, 100 nmol/l, 48 h, read-out: Inhibition rate (%)): 69.8 ± 7.5%
- inhibition at 0.3 µM (liver cancer HepG2 cells; HepG2, 300 nmol/l, 48 h, read-out: Inhibition rate (%)): 87.7 ± 9.6%
- IC50 (liver cancer HepG2 cells; HepG2, 48 h): 33 nM
- inhibition at 0.001 µM (lung cancer A549 cells; A549, 1 nmol/l, 48 h, read-out: Inhibition rate (%)): 2 ± 0.2%
- inhibition at 0.003 µM (lung cancer A549 cells; A549, 3 nmol/l, 48 h, read-out: Inhibition rate (%)): 8.5 ± 1%
- inhibition at 0.01 µM (lung cancer A549 cells; A549, 10 nmol/l, 48 h, read-out: Inhibition rate (%)): 25.3 ± 3.8%
- inhibition at 0.03 µM (lung cancer A549 cells; A549, 30 nmol/l, 48 h, read-out: Inhibition rate (%)): 44.2 ± 7.1%
- inhibition at 0.1 µM (lung cancer A549 cells; A549, 100 nmol/l, 48 h, read-out: Inhibition rate (%)): 52.3 ± 8.3%
- inhibition at 0.3 µM (lung cancer A549 cells; A549, 300 nmol/l, 48 h, read-out: Inhibition rate (%)): 63.8 ± 7.9%
- IC50 (lung cancer A549 cells; A549, 48 h): 78.8 nM
- inhibition at 0.001 µM ([3]; 1 nmol/l, read-out: Inhibition rate (%)): 3.8 ± 2%
- inhibition at 0.003 µM ([3]; 3 nmol/l, read-out: Inhibition rate (%)): 9.6 ± 8.2%
- inhibition at 0.01 µM ([3]; 10 nmol/l, read-out: Inhibition rate (%)): 33.9 ± 4.5%
- inhibition at 0.03 µM ([3]; 30 nmol/l, read-out: Inhibition rate (%)): 56.3 ± 8.2%
- inhibition at 0.1 µM ([3]; 100 nmol/l, read-out: Inhibition rate (%)): 90.3 ± 10.7%
- inhibition at 0.3 µM ([3]; 300 nmol/l, read-out: Inhibition rate (%)): 95.1 ± 6.9%
- IC50 [3]: 17.1 nM
- inhibition at 0.001 µM ([4]; SW 1116, SW1116, 1 nmol/l, 48 h, read-out: Inhibition rate (%)): 1.9 ± 0.3%
- inhibition at 0.003 µM ([4]; SW 1116, SW1116, 3 nmol/l, 48 h, read-out: Inhibition rate (%)): 2.7 ± 0.1%
- inhibition at 0.01 µM ([4]; SW 1116, SW1116, 10 nmol/l, 48 h, read-out: Inhibition rate (%)): 18 ± 3.9%
- inhibition at 0.03 µM ([4]; SW 1116, SW1116, 30 nmol/l, 48 h, read-out: Inhibition rate (%)): 42.7 ± 6.3%
- inhibition at 0.1 µM ([4]; SW 1116, SW1116, 100 nmol/l, 48 h, read-out: Inhibition rate (%)): 73.1 ± 8.8%
- inhibition at 0.3 µM ([4]; SW 1116, SW1116, 300 nmol/l, 48 h, read-out: Inhibition rate (%)): 99.4 ± 11.6%
- IC50 ([4]; SW 1116, SW1116, 48 h): 30.6 nM
- amount of bufalin tolerated by an adult patient every day [5]: up to 2.3 μg
- Average survival time ([6]; observed 35 days, 1 mg/kg): 22.8 ± 3.1 days
- Life extension rate (%) ([6]; versus control group): 36.5%
- LD50 at 7 days [7]: 2 mg/kg
- tumor inhibition rate ([8]; after 14 days, versus control group): 21.8%
- Tumor volume (mm^3) ([8]; treatment day 0 (prior to administration)): 410.5 ± 75.3 mm^3
- Tumor volume (mm^3) ([8]; treatment day 2): 1055.8 ± 203.0 mm^3
- Tumor volume (mm^3) ([8]; treatment day 4): 1621.0 ± 303.8 mm^3
- Tumor volume (mm^3) ([8]; treatment day 6): 2215.9 ± 338.1* mm^3
- Tumor volume (mm^3) ([8]; treatment day 8): 2115.7 ± 349.7* mm^3
- Tumor volume (mm^3) ([8]; treatment day 10): 2565.4 ± 385.2* mm^3
- Tumor volume (mm^3) ([8]; treatment day 12): 2691.9 ± 407.1* mm^3
- Tumor volume (mm^3) ([8]; treatment day 14, 1 mg/kg): 3205.6±711.5 mm^3
- Tumor volume (mm^3) ([8]; treatment day 14, listed as Bufalin, 1 mg/kg): 3205.6 ± 711.5* mm^3
